Results as given in US9221822B2, “Thiazolopyrimidine modulators as immunosuppressive agents” (Katholieke Universiteit Leuven, K.U.Leuven R&D, priority 2009, dated 2015).

Tests used:
[1] = system: cardiac allograft (C57BL/6 H-2b donor heart in Balb/c H-2d recipient); experiment: mouse model of cardiac allograft transplantation (graft survival); assay type: in vivo
Description: Inbreed C57BL/6 H-2^b and Balb/c H-2^d female mice, 8-10 weeks old, 20-25 g, were used as donor and recipient, respectively. Heterotopic heart transplantation was performed by implanting the donor heart on the neck of recipients using conventional microsurgery techniques. Graft beating was checked daily by inspection and palpation. Cessation of beating indicated graft rejection, which was confirmed by histological examination. Housing and all experimental animal procedures were approved by the Institutional Animal Care and Research Advisory Committee of the KU Leuven.

[2] = system: Human peripheral blood mononuclear cells (PBMCs) as Responder cells, RPMI 1788 Stimulator cells; experiment: Mixed Lymphocyte Reaction (MLR) test; assay type: cell-based; settings: Homo sapiens, RPMI-1788, lowest concentration giving 50% inhibition of the MLR; 6 days coculture, 3H-thymidine incorporation
Procedure, shortened: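 Human PBMC responders (0.12×10^6) were cocultured 6 days with mitomycin C-treated RPMI 1788 stimulators (0.045×10^6) and compound in RPMI 1640 with 10% FCS, in triplicate. A ^3H-thymidine pulse on day 5, harvested 18 h later, measured proliferation (cpm), converted to % inhibition versus a compound-free MLR.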

SMILES	IC50 [2]	other results
CCOc1nc(N)nc2sc(-c3ccc(F)cc3)cc12 [Example 363, 4-ethoxy-6-(4-fluorophenyl)thieno[2,3-d]pyrimidin-2-amine]	–	melting point: 142 °C
Cc1ccc(NC(=O)N2CCN(c3nc(N)nc4sc(-c5cccnc5)nc34)CC2)cc1 [Example 222, 4-(5-amino-2-(pyridin-3-yl)thiazolo[5,4-d]pyrimidin-7-yl)-N-p-tolylpiperazine-1-carboxamide]	–	graft survival ([1]; Example 449, 20 mg/kg per day): up to 13 days; grafts continuously functioning after stopping the treatment on day 30 ([1]; Example 449, 40 mg/kg per day): 3/4; grafts with continuous survival during treatment ([1]; Example 449, 40 mg/kg per day by daily gavage until day 30): 4/6
Nc1nc(N2CCN(C(=O)COc3ccc(Cl)cc3)CC2)c2nc(-c3cccnc3)sc2n1 [Example 121a, 5-amino-7-[4-(4-chlorophenoxyacetyl)piperazin-1-yl]-2-(pyridine-3-yl)thiazolo[5,4-d]pyrimidine]	50 nM	grafts with continuous survival during treatment ([1]; Example 448, 40 mg/kg by daily oral gavage until day 30, n=4): 3 out of 4; graft beating after withdrawal of the treatment ([1]; Example 448, 40 mg/kg oral, treatment stopped day 30): continued beating after withdrawal of the treatment (up to 60 days)
Nc1nc(N2CCN(C(=O)COc3ccc(Br)cc3)CC2)c2cc(-c3ccccc3)sc2n1 [Example 372, 1-(4-(2-amino-6-phenylthieno[2,3-d]pyrimidin-4-yl)piperazin-1-yl)-2-(4-bromophenoxy)ethanone]	320 nM	–
Nc1nc(N2CCN(C(=O)COc3ccc(Cl)cc3)CC2)c2ccsc2n1 [Example 351, 1-(4-(2-aminothieno[2,3-d]pyrimidin-4-yl)piperazin-1-yl)-2-(4-chlorophenoxy)ethanone]	1230 nM	–
Nc1nc(N2CCN(C(=O)COc3ccc(Cl)cc3)CC2)c2nc(-c3ccc(Cl)cc3)[nH]c2n1 [Example 392, 1-(4-(2-amino-8-(4-chlorophenyl)-9H-purin-6-yl)piperazin-1-yl)-2-(4-chlorophenoxy)ethanone]	540 nM	–
Nc1nc(N2CCN(C(=O)Cc3ccc(Cl)cc3)CC2)c2nc(CCc3ccc(F)cc3)oc2n1 [Example 194, 5-amino-2-[2-(4-fluorophenyl)ethyl]-7-(4-[2-(4-chlorophenyl)acetyl]-piperazin-1-yl)-oxazolo[5,4-d]pyrimidine]	9040 nM	–
COc1ccc(-c2nc3c(N4CCN(C(=O)COc5ccc(Cl)cc5)CC4)nc(N)nc3[nH]2)cc1OC [Example 390, 1-(4-(2-amino-8-(3,4-dimethoxyphenyl)-9H-purin-6-yl)piperazin-1-yl)-2-(4-chlorophenoxy)ethanone]	530 nM	–
